Laboratory results from article PMC12211128, “Safety, tolerability, pharmacokinetic and pharmacodynamic effects of the muscarinic M1 positive allosteric modulator VU0467319 for Alzheimer’s disease: a single ascending-dose study in healthy participants” (Alzheimer's Research & Therapy, 2025).

Experiment: Plasma pharmacokinetics, single ascending dose and food effect studies
Format: in vivo, human
Settings: for %AUCext / AUC0 − last / AUC0−∞ / CL/F / Cmax / Vz/F / t½: mean (SD); for Tmax: median (min, max)
Source text: Participants were screened up to 40 days prior to admission to the Vanderbilt Clinical Research Center (CRC). At admission, participants had baseline vital signs, clinical laboratory parameters and ECG were collected. The participants stayed overnight at the CRC, and in the morning performed the pre-dose cognitive and electrophysiological (ERP) batteries. Following completion of these batteries, pre-dose blood and urine for pharmacokinetic (PK) analysis was collected, as well as a second set of baseline vital signs. Participants then received an oral dose of VU319 or placebo with water. VU319 doses were assessed in five dose escalating cohorts of eight participants (60, 120, 240, 400 & 600 mg). The initial dose of 60 mg was chosen by allometric scaling of the highest no observed adverse effect level (NOAEL) in animal species and reduced by a safety factor of 10. The increase in doses following the initial dose of 60 mg followed a modified Fibonacci sequence. In each cohort, six participants received oral VU319 while two participants received placebo. The randomization of participants to either placebo or active VU319 was done using a randomly permuted block procedure at a ratio of 1:3 for each of five dosages of VU319. Participants were required to remain in the CRC for 36 h after dosing for the first four cohorts, and for 48 h for the 600 mg cohort and the food effect study due to the change in PK sampling (discussed more below). Cognitive and ERP batteries were performed five hours post-dose. The decision to escalate to the next dose cohort was determined by review and approval from an independent safety monitoring committee, based on the PK data, as well as the safety and tolerability data from the preceding dose level.
The food effect study was completed after the first 5 ascending cohorts, participants were dosed once in a fasted state and once following a controlled high fat breakfast. Based on the PK results of the single ascending dose cohorts (see results), the 120 mg dosage group was chosen for the food effect study. This dose was chosen as it was a low-middle dosage in which the pharmacokinetic parameters could move up or down depending on the addition of food. The food effect study consisted of twelve participants, ten of whom received oral 120 mg VU319, while the other two received placebo. The participants received VU319 or placebo on two separate visits to the Vanderbilt CRC. These visits were separated by at least 14 days to allow for washout. On one visit, participants were dosed in a fasted state, while on the other visit, participants were dosed 30 min after eating a controlled high-fat breakfast. The order of the fed/fast conditions were randomized and balanced so that half the cohort were dosed fasting first, and the other half fed first. Post-dose procedures were shifted 30 min to allow for breakfast, but otherwise all study procedures remained the same as in the ascending dose cohorts.
Blood samples (4 mL) were obtained by direct venipuncture into K2 EDTA tubes at 0.5 h pre-dose and at 0.5, 1, 1.5, 2, 2.5, 3, 5, 7, 9, 12, 24, 26, 28, 36, 48 and 144-hours post-dose. […] Urine samples for PK quantification were collected at pre-dose and 2, 5, 12, 24, 36 and 144-hours post-dose.
Determination of plasma and urine concentrations of VU319 and metabolite VU0481424 (VU424) was carried out in compliance with Good Laboratory Practice using a validated method at Illinois Institute of Technology Research Institute (IITRI) laboratories. Pharmacokinetic endpoints included the following VU319 parameters for plasma: area under the plasma concentration-time curve (AUC0 − 48); area under the plasma concentration-time curve extrapolated to infinity (AUC0−∞); percentage of the extrapolated area under the plasma concentration-time curve (%AUCextrap); maximum observed plasma concentration (Cmax); time (in hours) at which Cmax occurred (Tmax); clearance (Cl/F); elimination half-life (t1/2) and volume of distribution (Vd/F). […]

[1] = VU319 120 mg oral, fasted, food effect study
[2] = VU319 120 mg oral, fed, food effect study

In the case of Cn1cc2c(-c3cc(F)c(CN4Cc5ncccc5C4=O)c(F)c3)cccc2n1 [VU319], the “inter-participant variability (CV%) of Cmax, AUC0last, AUC0−∞” value (120 mg, fasted and fed conditions) is reported as 24–38%, the “AUC under fed vs fasted conditions” value (120 mg, food effect study) is reported as “insignificantly higher” and the “Cmax under fed vs fasted conditions, higher by” value (120 mg, food effect study) is reported as 51%. For the same compound, the “dose proportionality of systemic exposure (Cmax, AUC0 − last, AUC0−∞)” value (60 to 600 mg, linear power model) was “less than dose-proportional”, the “%AUCext” value (VU319 60 mg oral, SAD) was 4.81 (6.18) % and the “AUC0 − last” value (VU319 60 mg oral, SAD) was 36.8 (10.9) µg•h/mL. For the same compound, the “AUC0−∞” value (VU319 60 mg oral, SAD) was 39.2 (13.3) µg•h/mL, the CL/F (VU319 60 mg oral, SAD) was 1.73 (0.71) L/h and the Cmax (VU319 60 mg oral, SAD) was 0.725 (0.209) µg/mL. The Vz/F (VU319 60 mg oral, SAD) was 71.8 (20.2) L, the t½ (VU319 60 mg oral, SAD) was 31.5 (13.3) h and the Tmax (VU319 60 mg oral, SAD) was 7.00 (2.50, 9.00) h. The “%AUCext” value (VU319 120 mg oral, SAD) was 6.30 (3.55) %, the “AUC0 − last” value (VU319 120 mg oral, SAD) was 60.1 (13.7) µg•h/mL and the “AUC0−∞” value (VU319 120 mg oral, SAD) was 59.0 (9.07) µg•h/mL. For the same compound, the CL/F (VU319 120 mg oral, SAD) was 2.07 (0.28) L/h, the Cmax (VU319 120 mg oral, SAD) was 0.884 (0.312) µg/mL and the Vz/F (VU319 120 mg oral, SAD) was 107 (6.4) L. The t½ (VU319 120 mg oral, SAD) was 55.4 (46.8) h, the Tmax (VU319 120 mg oral, SAD) was 5.00 (2.00, 24.0) h and the “%AUCext” value [1] was 5.86 (4.51) %. For the same compound, the “AUC0 − last” value [1] was 56.8 (18.0) µg•h/mL, the “AUC0−∞” value [1] was 60.7 (23.3) µg•h/mL and the CL/F [1] was 2.35 (1.15) L/h. For the same compound, the Cmax [1] was 0.985 (0.38) µg/mL, the Vz/F [1] was 94.4 (27.8) L and the t½ [1] was 37.4 (15.9) h. The Tmax [1] was 5.11 (2.50, 48.1) h, the “%AUCext” value [2] was 5.79 (4.31) % and the “AUC0 − last” value [2] was 62.5 (15.6) µg•h/mL. For the same compound, the “AUC0−∞” value [2] was 66.6 (19.3) µg•h/mL, the CL/F [2] was 2.01 (0.85) L/h and the Cmax [2] was 1.42 (0.344) µg/mL. For the same compound, the Vz/F [2] was 85.3 (16.4) L, the t½ [2] was 36.9 (17.0) h and the Tmax [2] was 5.02 (2.50, 8.97) h. For the same compound, the “%AUCext” value (VU319 240 mg oral, SAD) was 5.48 (6.31) %, the “AUC0 − last” value (VU319 240 mg oral, SAD) was 63.8 (18.4) µg•h/mL and the “AUC0−∞” value (VU319 240 mg oral, SAD) was 78.3 (15.2) µg•h/mL. The CL/F (VU319 240 mg oral, SAD) was 3.15 (0.58) L/h, the Cmax (VU319 240 mg oral, SAD) was 1.18 (0.425) µg/mL and the Vz/F (VU319 240 mg oral, SAD) was 143 (52.7) L. For the same compound, the t½ (VU319 240 mg oral, SAD) was 35.0 (14.5) h, the Tmax (VU319 240 mg oral, SAD) was 9.50 (3.00, 24.0) h and the “%AUCext” value (VU319 400 mg oral, SAD) was 11.2 (4.73) %. The “AUC0 − last” value (VU319 400 mg oral, SAD) was 132 (47.4) µg•h/mL, the “AUC0−∞” value (VU319 400 mg oral, SAD) was 124 (32.0) µg•h/mL and the CL/F (VU319 400 mg oral, SAD) was 3.42 (0.96) L/h. The Cmax (VU319 400 mg oral, SAD) was 1.72 (0.447) µg/mL, the Vz/F (VU319 400 mg oral, SAD) was 219 (21.6) L and the t½ (VU319 400 mg oral, SAD) was 46.2 (9.54) h. The Tmax (VU319 400 mg oral, SAD) was 5.98 (2.02, 48.2) h, the “%AUCext” value (VU319 600 mg oral, SAD) was 5.73 (2.41) % and the “AUC0 − last” value (VU319 600 mg oral, SAD) was 207 (47.1) µg•h/mL. For the same compound, the “AUC0−∞” value (VU319 600 mg oral, SAD) was 221 (54.6) µg•h/mL, the CL/F (VU319 600 mg oral, SAD) was 2.87 (0.77) L/h and the Cmax (VU319 600 mg oral, SAD) was 2.81 (0.64) µg/mL. The Vz/F (VU319 600 mg oral, SAD) was 123 (23.8) L, the t½ (VU319 600 mg oral, SAD) was 30.4 (4.37) h and the Tmax (VU319 600 mg oral, SAD) was 5.01 (2.00, 48.0) h. The “plasma half-life (initial findings)” value (first SAD cohorts, reason for changed sampling times) was greater than 30 h and the “dose proportionality of systemic exposure” value (higher doses, 240 to 600 mg) was “approximately proportional to dose”.
